Results on 1 compound are retold here after patent US5723580A, “Ketomethylene group-containing aldehyde cysteine and serine protease inhibitors” (Cephalon, Inc., priority 1996, dated 1998).

As usually defined, the IC50 is the midpoint of a concentration-inhibition curve. A higher IC50 goes with weaker potency.

Common to all, as to type: biochemical
For test [1], the target named is T1, Calpain I (Homo sapiens, UniProt P07384).
T1 construct: made in house
T1 sequence (P07384 1-714): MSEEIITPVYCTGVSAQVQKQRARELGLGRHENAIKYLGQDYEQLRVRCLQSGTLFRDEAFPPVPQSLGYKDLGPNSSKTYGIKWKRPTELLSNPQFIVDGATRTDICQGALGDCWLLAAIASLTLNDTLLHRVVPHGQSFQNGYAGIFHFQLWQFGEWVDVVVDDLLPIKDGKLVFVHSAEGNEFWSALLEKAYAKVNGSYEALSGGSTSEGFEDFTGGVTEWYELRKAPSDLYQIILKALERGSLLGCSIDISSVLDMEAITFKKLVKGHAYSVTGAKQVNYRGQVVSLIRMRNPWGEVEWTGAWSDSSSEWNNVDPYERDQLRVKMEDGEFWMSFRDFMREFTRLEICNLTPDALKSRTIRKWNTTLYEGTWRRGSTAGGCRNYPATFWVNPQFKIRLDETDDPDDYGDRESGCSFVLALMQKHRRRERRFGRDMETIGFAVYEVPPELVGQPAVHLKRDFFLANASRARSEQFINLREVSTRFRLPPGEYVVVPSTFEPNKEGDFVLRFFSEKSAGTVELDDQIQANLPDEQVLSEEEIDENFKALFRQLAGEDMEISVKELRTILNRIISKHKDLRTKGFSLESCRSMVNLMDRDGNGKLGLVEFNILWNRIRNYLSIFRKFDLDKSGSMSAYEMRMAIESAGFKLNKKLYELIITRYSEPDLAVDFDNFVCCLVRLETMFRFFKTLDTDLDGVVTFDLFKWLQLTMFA
T1 sequence (P04632 1-268 partner): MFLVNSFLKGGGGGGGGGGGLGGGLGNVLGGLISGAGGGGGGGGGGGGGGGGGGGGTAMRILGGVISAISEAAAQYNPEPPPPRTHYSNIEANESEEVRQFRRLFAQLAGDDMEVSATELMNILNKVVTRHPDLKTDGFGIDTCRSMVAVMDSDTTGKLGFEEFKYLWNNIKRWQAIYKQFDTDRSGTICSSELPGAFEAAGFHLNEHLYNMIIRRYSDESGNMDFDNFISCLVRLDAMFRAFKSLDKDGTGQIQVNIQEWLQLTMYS
The test can be described thus: Inhibition of calpain I activity (fluorescence, Succ-Leu-Tyr-MNA substrate hydrolysis). As to conditions: 0.2 mM Succ-Leu-Tyr-MNA, pH 7.5. On the procedure:
(§1) To evaluate inhibitory activity, stock solutions (40 times concentrated) of each compound to be tested were prepared in 100% anhydrous DMSO and 5 μL of each inhibitor preparation were aliquoted into each of three wells of a 96-well plate. Calpain I, prepared by a modification of the method of W. J. Lee et al. (Biochem. Internatl. 22: 163-171 (1990)), was diluted into assay buffer (i.e., 50 mM Tris, 50 mM NaCl, 1 mM EDTA, 1 mM EGTA, and 5 mM-mercaptoethanol, pH 7.5 including 0.2 mM Succ-Leu-Tyr-MNA) and 175 μL aliquoted into the same wells containing the independent inhibitor stocks as well as to positive control wells containing 5 μL DMSO, but no compound. To start the reaction, 20 μL of 50 mM CaCl2 in assay buffer was added to all wells of the plate, excepting three, which were used as background signal baseline controls. Substrate hydrolysis was monitored every 5 minutes for a total of 30 minutes using a Fluoroskan II fluorescence plate reader. Substrate hydrolysis in the absence of inhibitor was linear for up to 15 minutes.
(§2) Inhibition of calpain I activity was calculated as the percent decrease in the rate of substrate (S) hydrolysis in the presence of inhibitor (I) relative to the rate in its absence (o). […] The results were plotted as % inhibition versus log inhibitor concentration and the IC50 was calculated from linear regression of the data.

Test [2] concerns cathepsin B. The test is described as follows: Inhibition of cathepsin B activity (Cbz-Phe-Arg-AMC substrate). To be noted: @1 uM; 0.1 mM Cbz-Phe-Arg-AMC, pH 6.0. On the procedure:
as §1, with “To start the reaction, 20 μL of 50 mM CaCl2 in assay buffer was added to all wells of the plate, excepting three, which were used as background signal baseline controls.” left out, “Substrate hydrolysis in the absence of inhibitor was linear for up to 15 minutes.” left out
as §2
(§3) Additionally, the order of reagents added to the plate was altered because both enzymes are constitutively active. […] Substrate hydrolysis was monitored using a Fluoroskan II (ex=390 nm; em=460 nm).

Test [3] deals with cathepsin L. The test can be described thus: Inhibition of cathepsin L activity (Cbz-Phe-Arg-AMC substrate). As to conditions: @1 uM; 0.006 mM Cbz-Phe-Arg-AMC, pH 6.0. On the procedure:
as §1, with “To start the reaction, 20 μL of 50 mM CaCl2 in assay buffer was added to all wells of the plate, excepting three, which were used as background signal baseline controls.” left out, “Substrate hydrolysis in the absence of inhibitor was linear for up to 15 minutes.” left out
as §2, §3

The test system of test [4] is thrombin. The test can be described thus: Inhibition of thrombin (Bz-Phe-Val-Arg-AMC substrate). To be noted: @10 uM; 25 μM Bz-Phe-Val-Arg-AMC, pH 7.5.
Test [5] deals with α-chymotrypsin. The test can be described thus: Inhibition of α-chymotrypsin (Succ-Ala-Ala-Pro-Phe-AMC substrate). To be noted: @10 uM; 0.03 mM Succ-Ala-Ala-Pro-Phe-AMC, pH 7.5. On the procedure:
as §1, with “To start the reaction, 20 μL of 50 mM CaCl2 in assay buffer was added to all wells of the plate, excepting three, which were used as background signal baseline controls.” left out, “Substrate hydrolysis in the absence of inhibitor was linear for up to 15 minutes.” left out
Additionally, because α-chymotrypsin is not a calcium sensitive enzyme and is constitutively active, following addition of inhibitor stocks to the 96 well plates, 100 μl of a 2-fold concentrated stock of enzyme in dilution buffer was first added and the reaction started by addition of 100 μl of a 2-fold concentrated stock of substrate in assay buffer. Substrate hydrolysis was monitored every 5 minutes up to 30 minutes using a Fluoroskan II ([…]). […]

Compound `CC(C)CC(CC(=O)[C@H](CC(C)C)NC(=O)OCc1ccccc1)C(=O)N[C@H](C=O)CC(C)C` (stereo partly drawn) [compound 7, Z-Leu-Psi[COCH2 ]Leu-Leu-H] registered an IC50 in test [1] of 12 nM. For the same compound, in test [2], the “Cat B % I” value came to 97%. The “Cat L % I” value in test [3] is reported as 100%. For the same compound, the “Thrombin % I” value in test [4] amounted to 0%. In addition, the “Chymotrypsin % I” value in test [5] was 53%.
